According to patent US20120065126A1, “Pharmaceutical Compositions Containing Antifungal Peptides” (BASF SE, priority 2009, published 2012):

Columns and labels:
[1] = system: Candida albicans (DSM 11948); test: Short-term effect (CFU); type: cell-based
Description: For this purpose, the procedure was as follows.
YM growth medium (Becton, Dickinson and Company, Sparks, USA) 3 g of yeast extract 3 g of malt extract 5 g of peptone 10 g of dextrose make up to 1 liter, set pH 6.2
The growth test was effected as follows: 5 ml of YM medium were inoculated with C. albicans and incubated at 30° C. and 200 rpm overnight.
1.5 ml reaction vessels were filled with 1 ml each of YM medium and inoculated with the C. albicans suspension of the overnight culture. The resulting C. albicans suspension was set at the start of the experiment to an optical density, measured at 600 nm, of 0.1. The concentration of the peptide solution in water or ZPT solution (zinc pyrithione, >96%, Sigma Aldrich) dissolved in DMSO was 2% (w/w).
The following growth was compared: • C. albicans suspension and addition of P18 peptide with a final concentration in the 1.5 ml reaction vessel of 50 ppm after 5 minutes, 10 minutes, 20 minutes and 60 minutes • C. albicans suspension and addition of P18 peptide with a final concentration in the 1.5 ml reaction vessel of 100 ppm after 5 minutes, 10 minutes, 20 minutes and 60 minutes • C. albicans suspension and addition of P18 peptide with a final concentration in the 1.5 ml reaction vessel of 200 ppm after 5 minutes, 10 minutes, 20 minutes and 60 minutes • C. albicans suspension and addition of P18 peptide with a final concentration in the 1.5 ml reaction vessel of 500 ppm after 5 minutes, 10 minutes, 20 minutes and 60 minutes • C. albicans suspension and addition of P18 peptide with a final concentration in the 1.5 ml reaction vessel of 1000 ppm after 5 minutes, 10 minutes, 20 minutes and 60 minutes • C. albicans suspension and addition of ZPT with a final concentration in the 1.5 ml reaction vessel of 50 ppm after 5 minutes, 10 minutes, 20 minutes and 60 minutes • C. albicans suspension and addition of ZPT with a final concentration in the 1.5 ml reaction vessel of 100 ppm after 5 minutes, 10 minutes, 20 minutes and 60 minutes • C. albicans suspension and addition of ZPT with a final concentration in the 1.5 ml reaction vessel of 200 ppm after 5 minutes, 10 minutes, 20 minutes and 60 minutes • C. albicans suspension and addition of ZPT with a final concentration in the 1.5 ml reaction vessel of 500 ppm after 5 minutes, 10 minutes, 20 minutes and 60 minutes • C. albicans suspension and addition of ZPT with a final concentration in the 1.5 ml reaction vessel of 1000 ppm after 5 minutes, 10 minutes, 20 minutes and 60 minutes
The 1.5 ml reaction vessels were incubated at room temperature.
After the incubation times specified, the colony forming units (CFU) were determined by streaking 1 μl of each of the suspensions diluted in 20 μl of YM medium and, after incubation for 2 days, counting the colonies.

[2] = system: Malassezia furfur; test: Incubation times between 5 minutes and 1 hour (CFU); type: cell-based
Description: The studies described hereinafter were conducted on the Malassezia furfur strain DSM 6170.
For this purpose, the concentrations 100 μM, 200 μM and 500 μM of P18 peptide and of zinc pyrithione as a control substance were used in the experiment. The experiments were conducted as follows:
The growth test was effected as follows: a shake culture containing M472 Pityrosporum medium was inoculated with M. furfur and incubated with shaking at 30° C. and 200 rpm overnight.
A 96-well microtiter plate was filled with 100 μl per well of M472 Pityrosporum medium and inoculated with M. furfur suspension from the overnight culture. The M. furfur suspension was adjusted at the start of the experiment to an optical density, measured at 600 nm, of 0.1.
The following growth was compared: • M. furfur suspension and addition of P18 peptide with a final concentration of 100 μM, plating after 5 minutes, 10 minutes, 20 minutes and 60 minutes • M. furfur suspension and addition of P18 peptide with a final concentration of 200 μM, plating after 5 minutes, 10 minutes, 20 minutes and 60 minutes • M. furfur suspension and addition of P18 peptide with a final concentration of 500 μM, plating after 5 minutes, 10 minutes, 20 minutes and 60 minutes • M. furfur suspension and addition of zinc pyrithione with a final concentration of 100 μM, plating after 5 minutes, 10 minutes, 20 minutes and 60 minutes • M. furfur suspension and addition of zinc pyrithione with a final concentration of 200 μM, plating after 5 minutes, 10 minutes, 20 minutes and 60 minutes • M. furfur suspension and addition of zinc pyrithione with a final concentration of 500 μM, plating after 5 minutes, 10 minutes, 20 minutes and 60 minutes
The microtiter plate was incubated with shaking at 30°.
After the incubation times specified, the colony forming units (CFU) were determined by streaking 50 μl of each of the suspensions and, after incubation over the course of 6 days, counting the colonies. The CFU was determined in order to rule out any influence of the biphasic medium, and also the growth form of M. furfur, on the optical density. The experiments were repeated independently of one another.

What does the source list for “H-KWKLFKKIPKFLHLAKKF-NH2 [P18, H-KWKLFKKIPKFLHLAKKF-NH2]”?
Colony forming units after the incubation time specified ([1]; 50 ppm, 5 minutes): 986 ± 280 CFU; Colony forming units after the incubation time specified ([1]; 50 ppm, 10 minutes): 944 ± 209 CFU; Colony forming units after the incubation time specified ([1]; 50 ppm, 20 minutes): 954 ± 14 CFU; Colony forming units after the incubation time specified ([1]; 50 ppm, 60 minutes): 518 ± 82 CFU; Colony forming units after the incubation time specified ([1]; 100 ppm, 5 minutes): 718 ± 116 CFU; Colony forming units after the incubation time specified ([1]; 100 ppm, 10 minutes): 628 ± 112 CFU; Colony forming units after the incubation time specified ([1]; 100 ppm, 20 minutes): 454 ± 127 CFU; Colony forming units after the incubation time specified ([1]; 100 ppm, 60 minutes): 25 ± 0 CFU; Colony forming units after the incubation time specified ([1]; 200 ppm, 5 minutes): 242 ± 122 CFU; Colony forming units after the incubation time specified ([1]; 200 ppm, 10 minutes): 72 ± 2 CFU; Colony forming units after the incubation time specified ([1]; 200 ppm, 20 minutes): 29 ± 2 CFU; Colony forming units after the incubation time specified ([1]; 200 ppm, 60 minutes): 1 ± 1 CFU; Colony forming units after the incubation time specified ([1]; 500 ppm, 5 minutes): 39 ± 1 CFU; Colony forming units after the incubation time specified ([1]; 500 ppm, 10 minutes): 5 ± 6 CFU; Colony forming units after the incubation time specified ([1]; 500 ppm, 20 minutes): 1 ± 1 CFU; Colony forming units after the incubation time specified ([1]; 500 ppm, 60 minutes): 0 ± 0 CFU; Colony forming units after the incubation time specified ([1]; 1000 ppm, 5 minutes): 10 ± 2 CFU; Colony forming units after the incubation time specified ([1]; 1000 ppm, 10 minutes): 1 ± 2 CFU; Colony forming units after the incubation time specified ([1]; 1000 ppm, 20 minutes): 0 ± 0 CFU; Colony forming units after the incubation time specified ([1]; 1000 ppm, 60 minutes): 0 ± 0 CFU; Colony forming units after incubation time specified ([2]; 100 μM, 5 minutes): >1000 CFU; Colony forming units after incubation time specified ([2]; 100 μM, 10 minutes): >1000 CFU; Colony forming units after incubation time specified ([2]; 100 μM, 20 minutes): 604 CFU; Colony forming units after incubation time specified ([2]; 100 μM, 60 minutes): 149 ± 60 CFU; Colony forming units after incubation time specified ([2]; 200 μM, 5 minutes): >1000 CFU; Colony forming units after incubation time specified ([2]; 200 μM, 10 minutes): >1000 CFU; Colony forming units after incubation time specified ([2]; 200 μM, 20 minutes): >1000 CFU; Colony forming units after incubation time specified ([2]; 200 μM, 60 minutes): 52 ± 16 CFU; Colony forming units after incubation time specified ([2]; 500 μM, 5 minutes): >1000 CFU; Colony forming units after incubation time specified ([2]; 500 μM, 10 minutes): 398 ± 290 CFU; Colony forming units after incubation time specified ([2]; 500 μM, 20 minutes): 26 ± 6 CFU; Colony forming units after incubation time specified ([2]; 500 μM, 60 minutes): 1 ± 1 CFU

With zinc pyrithione [ZPT] as the substance, how does the Inhibition in words ([1]; 50-1000 ppm, up to 60 minutes) read?
Its Inhibition in words is “no significant inhibition”.

What about the “Colony forming units after the incubation time specified” value ([1]; 50 ppm, 5 minutes) of the same substance?
The value was 830 ± 190 CFU.

What about the “Colony forming units after the incubation time specified” value ([1]; 50 ppm, 10 minutes) of the same substance?
The value was 1096 ± 51 CFU.

And the “Colony forming units after the incubation time specified” value ([1]; 50 ppm, 20 minutes)?
The value was 986 ± 20 CFU.

And the “Colony forming units after the incubation time specified” value ([1]; 50 ppm, 60 minutes)?
The value was 982 ± 93 CFU.

And the “Colony forming units after the incubation time specified” value ([1]; 100 ppm, 5 minutes)?
Its value is 809 ± 100 CFU.

And the “Colony forming units after the incubation time specified” value ([1]; 100 ppm, 10 minutes)?
The value was 1048 ± 74 CFU.

What about the “Colony forming units after the incubation time specified” value ([1]; 100 ppm, 20 minutes) of the same substance?
Its value is 806 ± 105 CFU.

What about the “Colony forming units after the incubation time specified” value ([1]; 100 ppm, 60 minutes) of the same substance?
The value was 762 ± 212 CFU.

What about the “Colony forming units after the incubation time specified” value ([1]; 200 ppm, 5 minutes) of the same substance?
The value was 676 ± 204 CFU.

And the “Colony forming units after the incubation time specified” value ([1]; 200 ppm, 10 minutes)?
The value was 906 ± 331 CFU.

And the “Colony forming units after the incubation time specified” value ([1]; 200 ppm, 20 minutes)?
The value was 882 ± 190 CFU.

What about the “Colony forming units after the incubation time specified” value ([1]; 200 ppm, 60 minutes) of the same substance?
Its value is 711 ± 125 CFU.

And the “Colony forming units after the incubation time specified” value ([1]; 500 ppm, 5 minutes)?
Its value is 863 ± 35 CFU.

And the “Colony forming units after the incubation time specified” value ([1]; 500 ppm, 10 minutes)?
The value was 832 ± 192 CFU.

What about the “Colony forming units after the incubation time specified” value ([1]; 500 ppm, 20 minutes) of the same substance?
The value was 710 ± 71 CFU.

What about the “Colony forming units after the incubation time specified” value ([1]; 500 ppm, 60 minutes) of the same substance?
The value was 617 ± 134 CFU.

What about the “Colony forming units after the incubation time specified” value ([1]; 1000 ppm, 5 minutes) of the same substance?
Its value is 806 ± 20 CFU.

And the “Colony forming units after the incubation time specified” value ([1]; 1000 ppm, 10 minutes)?
Its value is 700 ± 153 CFU.

And the “Colony forming units after the incubation time specified” value ([1]; 1000 ppm, 20 minutes)?
Its value is 550 ± 88 CFU.

What about the “Colony forming units after the incubation time specified” value ([1]; 1000 ppm, 60 minutes) of the same substance?
Its value is 482 ± 69 CFU.

And the “Colony forming units after incubation time specified” value ([2]; 100 μM, 5 minutes)?
Its value is greater than 1000 CFU.

What about the “Colony forming units after incubation time specified” value ([2]; 100 μM, 10 minutes) of the same substance?
Its value is greater than 1000 CFU.

What about the “Colony forming units after incubation time specified” value ([2]; 100 μM, 20 minutes) of the same substance?
The value was greater than 1000 CFU.

And the “Colony forming units after incubation time specified” value ([2]; 100 μM, 60 minutes)?
The value was greater than 1000 CFU.

And the “Colony forming units after incubation time specified” value ([2]; 200 μM, 5 minutes)?
Its value is greater than 1000 CFU.

And the “Colony forming units after incubation time specified” value ([2]; 200 μM, 10 minutes)?
Its value is greater than 1000 CFU.

And the “Colony forming units after incubation time specified” value ([2]; 200 μM, 20 minutes)?
Its value is greater than 1000 CFU.

And the “Colony forming units after incubation time specified” value ([2]; 200 μM, 60 minutes)?
The value was greater than 1000 CFU.

And the “Colony forming units after incubation time specified” value ([2]; 500 μM, 5 minutes)?
The value was greater than 1000 CFU.

And the “Colony forming units after incubation time specified” value ([2]; 500 μM, 10 minutes)?
Its value is greater than 1000 CFU.

And the “Colony forming units after incubation time specified” value ([2]; 500 μM, 20 minutes)?
Its value is greater than 1000 CFU.

What about the “Colony forming units after incubation time specified” value ([2]; 500 μM, 60 minutes) of the same substance?
Its value is greater than 1000 CFU.
